The source of these data is patent US7265131B2, “Isoquinolinone derivatives and their use as therapeutic agents” (Exelixis, Inc., priority 2002, dated 2007).

The experiment has as its target T1, LXR β (Homo sapiens, UniProt P55055).
T1 construct: comprising full-length LXR α (pCMX-hLXR α), LXR β (pCMX-hLXR β), or RXR α (pCMX-RXR); expressed in transfected cells; host or cells: CV-1 African Green Monkey kidney cells, transient transfection
T1 sequence (P55055 1-460): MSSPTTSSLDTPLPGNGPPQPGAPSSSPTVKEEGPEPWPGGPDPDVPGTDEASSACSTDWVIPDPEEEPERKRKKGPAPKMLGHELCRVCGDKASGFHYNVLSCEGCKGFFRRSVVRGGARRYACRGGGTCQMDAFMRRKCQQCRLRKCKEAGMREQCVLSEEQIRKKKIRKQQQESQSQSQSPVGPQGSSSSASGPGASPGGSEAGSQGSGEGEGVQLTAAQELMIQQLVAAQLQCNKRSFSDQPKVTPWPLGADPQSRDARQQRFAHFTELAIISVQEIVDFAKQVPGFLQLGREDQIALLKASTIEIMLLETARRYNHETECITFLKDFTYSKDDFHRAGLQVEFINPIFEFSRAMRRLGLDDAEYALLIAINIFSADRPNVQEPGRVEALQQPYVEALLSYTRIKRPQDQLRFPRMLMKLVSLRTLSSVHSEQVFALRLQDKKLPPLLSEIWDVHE
T1 sequence (P19793 1-462 partner): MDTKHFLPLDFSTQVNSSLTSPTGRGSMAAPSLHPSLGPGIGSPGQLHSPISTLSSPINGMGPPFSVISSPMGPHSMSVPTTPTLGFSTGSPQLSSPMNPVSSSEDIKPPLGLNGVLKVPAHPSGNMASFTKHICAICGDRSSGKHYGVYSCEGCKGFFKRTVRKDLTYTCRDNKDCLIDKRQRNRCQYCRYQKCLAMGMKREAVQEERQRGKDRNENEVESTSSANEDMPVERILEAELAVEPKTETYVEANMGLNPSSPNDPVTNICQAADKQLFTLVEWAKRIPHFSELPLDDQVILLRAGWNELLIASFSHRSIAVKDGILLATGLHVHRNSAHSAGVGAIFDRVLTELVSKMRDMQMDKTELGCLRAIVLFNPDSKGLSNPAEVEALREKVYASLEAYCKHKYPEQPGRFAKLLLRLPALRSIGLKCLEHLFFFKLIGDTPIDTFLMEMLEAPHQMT
The experiment is described as follows: LXR/LXRE co-transfection assay (luciferase reporter, CV-1 cells). Format: cell-based. As to conditions: for Emax: CV-1, average percent efficacy, relative to control N-(3-((4-fluorophenyl)-(naphthalene-2-sulfonyl)amino)propyl)-2,2-dimethylpropionamide, read-out: % Eff(b); for EC50: average EC50 for agonism, cotransfection assay, CV-1 cells. The source says: To measure the ability of compounds to activate or inhibit the transcriptional activity of LXR in a cell based assay, the co-transfection assay was used. It has been shown that LXR functions as a heterodimer with RXR. For the co-transfection assay, expression plasmids for LXR and RXR are introduced via transient transfection into mammalian cells along with a luciferase reporter plasmid that contains one copy of a DNA sequence that is bound by LXR-RXR heterodimers (LXRE; Willy, P. et al. 1995). Treatment of transfected cells with an LXR agonist increases the transcriptional activity of LXR, which is measured by an increase in luciferase activity.
1. CV-1 African Green Monkey Kidney Cells
2. Co-transfection expression plasmids, comprising full-length LXR α (pCMX-hLXR α), LXR β (pCMX-hLXR β), or RXR α (pCMX-RXR), reporter plasmid (LXREx1-Tk-Luciferase), and control (pCMX-Galactosidase expression vector) (Willey et al. Genes & Development 9 1033-1045 (1995)).
CV-1 cells were prepared 24 hours prior to the experiment by plating them into T-175 flasks or 500 cm^2 dishes in order to achieve 70-80% confluency on the day of the transfection. The number of cells to be transfected was determined by the number of plates to be screened. Each 384 well plate requires 1.92×10^6 cells or 5000 cells per well. DNA Transfection Reagent was prepared by mixing the required plasmid DNAs with a cationic lipid transfection reagent FuGENE6 (Roche) by following the instructions provided with the reagents. Optimal DNA amounts were determined empirically per cell line and size of vessel to be transfected. 10-12 mL of media was added to the DNA Transfection Reagent and this mixture was added to the cells after aspirating media from the T175 cm^2 flask. Cells were then incubated at least 5 hours at 37° C. to prepare screening cells.
Luciferase assay reagent was prepared by combining before use (per 10 mL):
Assay plates were prepared by dispensing 5 μL of compound per well of a 384 well plate to achieve final compound concentration of 10 μM and no more than 1% DMSO. Media was removed from the screening cells, the cells trypsinized, harvested cells by centrifugation, counted, and plated at a density of approximately 5000 cells per well in the 384 well assay plate prepared above in a volume of about 45 μL. Assay plates containing both compounds and screening cells (50 μL in total volume) were incubated for 20 hours at 37° C.
After incubation with compounds, media was removed from the cells and lysis buffer (30 μuL/well) added. After 30 minutes at ambient temperature, luciferase assay buffer (30 μL/well) was added and the assay plates read on a luminometer (PE Biosystems Northstar reader with on-board injectors, or equivalent). Plates were read immediately after addition of luciferase assay buffer.
The LXR/LXRE co-transfection assay can be used to establish the EC50/IC50 values for potency and percent activity or inhibition for efficacy. Efficacy defines the activity of a compound relative to a high control ((N-(3-((4-fluorophenyl)-(naphthalene-2-sulfonyl)amino)propyl)-2,2-dimethylpropionamide)) or a low control (DMSO/vehicle). The dose response curves are generated from an 8 point curve with concentrations differing by ½ LOG units. Each point represents the average of 4 wells of data from a 384 well plate.
The data from this assay is fitted to the following equation, from the EC50 value may be solved: Y=Bottom+(Top-Bottom)/(1+10^((logEC50-X*HillSlope))
The EC50/IC50 is therefore defined as the concentration at which an agonist or antagonist elicits a response that is half way between the Top (maximum) and Bottom (baseline) values. The EC50/IC50 values represented are the averages of at least 3 independent experiments. […]

Turning to `Cc1ccc(Cn2c(C#CC(C)(C)O)cc3ccccc3c2=O)c(C)c1` [2-(2,4-dimethylbenzyl)-3-(3-hydroxy-3-methylbut-1-ynyl)-2H-isoquinolin-1-one], the Emax lay within 40 to 90% and the EC50 was over 500 nM.
With `Cc1ccc(Cn2c(-c3ccc(Oc4ccccc4)cc3)cc3ccccc3c2=O)c(C)c1` [2-(2,4-dimethylbenzyl)-3-(4-phenoxyphenyl)-2H-isoquinolin-1-one], the Emax is over 90% and the EC50 was 10 to 150 nM.
Take `Cc1cccc(-c2cc3ccccc3c(=O)n2Cc2ccc(C)cc2C)c1` [2-(2,4-dimethylbenzyl)-3-m-tolyl-2H-isoquinolin-1-one]: the Emax is 40 to 90% and the half-maximal effective concentration (EC50) is over 500 nM.
For `Cc1ccc(Cn2c(-c3ccsc3)cc3ccccc3c2=O)c(C)c1` [2-(2,4-dimethylbenzyl)-3-thiophen-3-yl-2H-isoquinolin-1-one] the same measures were 40 to 90% and over 500 nM.
For the compound `Cc1cccc(-c2cc3ccccc3c(=O)n2Cc2ccccc2)c1` [2-benzyl-3-m-tolyl-2H-isoquinolin-1-one], the Emax fell in the range of 40 to 90% and the EC50 is over 500 nM.
Regarding `O=c1c2c(Cl)cccc2cc(-c2cc(-c3cc(C(F)(F)F)cc(C(F)(F)F)c3)co2)n1Cc1ccc(F)cc1F` [3-[4-(3,5-bis-trifluoromethylphenyl)furan-2-yl]-8-chloro-2-(2,4-difluorobenzyl)-2H-isoquinolin-1-one], the Emax was over 90% and the EC50 lay within 10 to 150 nM.
In the case of `Nc1ccc(-c2coc(-c3cc4cccc(Cl)c4c(=O)n3Cc3ccc(F)cc3F)c2)cc1C(F)(F)F` [3-[4-(4-amino-3-trifluoromethylphenyl)furan-2-yl]-8-chloro-2-(2,4-difluorobenzyl)-2H-isoquinolin-1-one], the Emax is over 90% and the EC50 fell in the range of 10 to 150 nM.
As for `O=c1c2c(Cl)cccc2cc(-c2ccc(Oc3ccccc3)cc2)n1Cc1ccc(F)cc1F` [8-chloro-2-(2,4-difluorobenzyl)-3-(4-phenoxyphenyl)-2H-isoquinolin-1-one], the Emax is over 90% and the EC50 was 10 to 150 nM.
Take `O=c1c2c(Cl)cccc2cc(-c2ccc(Oc3cnccn3)cc2)n1Cc1ccc(F)cc1F` [8-chloro-2-(2,4-difluorobenzyl)-3-[4-(pyrazin-2-yloxy)phenyl]-2H-isoquinolin-1-one]: the Emax is over 90% and the half-maximal effective concentration (EC50) lay within 10 to 150 nM.
Regarding `CS(=O)(=O)c1ccc(-c2ccc(-c3cc4cccc(Cl)c4c(=O)n3Cc3ccc(F)cc3F)s2)cc1` [8-chloro-2-(2,4-difluorobenzyl)-3-[5-(4-methanesulfonylphenyl)thiophen-2-yl]-2H-isoquinolin-1-one], the Emax is over 90% and the EC50 was under 10 nM.
With `O=c1c2c(Cl)cccc2cc(-c2ccc(Oc3ccccc3)cc2)n1CC1CCCCC1` [8-chloro-2-cyclohexylmethyl-3-(4-phenoxyphenyl)-2H-isoquinolin-1-one], the Emax is over 90% and the EC50 was in the range of 150 to 500 nM.
As to `O=c1c2c(Cl)cccc2cc(-c2ccc(Oc3ccccc3)cc2)n1Cc1cccs1` [8-chloro-3-(4-phenoxyphenyl)-2-thiophen-2-ylmethyl-2H-isoquinolin-1-one], the Emax is over 90% and the concentration for a half-maximal effect (EC50) lay in the range of 150 to 500 nM.
For `CCOc1ccc(-c2csc(-c3cc4cccc(Cl)c4c(=O)n3Cc3ccc(F)cc3F)c2)cc1Cl` [8-chloro-3-[4-(3-chloro-4-ethoxyphenyl)thiophen-2-yl]-2-(2,4-difluorobenzyl)-2H-isoquinolin-1-one] the same measures were over 90% and 10 to 150 nM.
Regarding `Cc1ccc(Cn2c(-c3ccc(Oc4ccccc4)cc3)cc3cccc(C)c3c2=O)cc1` [8-methyl-2-(4-methylbenzyl)-3-(4-phenoxyphenyl)-2H-isoquinolin-1-one], the Emax fell in the range of 40 to 90% and the EC50 was in the range of 10 to 150 nM.
